Laboratory results as given in patent publication US9101632B2, “Kinase inhibitors, prodrug forms thereof and their use in therapy” (AUCKLAND UNISERVICES LIMITED, priority 2009, dated 2015).
Like-named read-outs stand apart in the source and are kept apart here.

Columns and labels:
H1975 tumours = details: H1975 xenograft, q3dx4, intraperitoneal; for Drug related deaths: lactate buffer pH 4; for Weight Loss Nadir (%): mean nadir relative to day 0 weight
SKOV3 cells = test: Inhibition of cellular proliferation (sulforhodamine B staining)
A431 cells = test: as above
H1975 cells = test: as above; details: for H1975 HCR (Hypoxic Cytotoxicity Ratio): fold change in intra-experimental IC50, 4 hours anoxia relative to oxic only
p44/42 MAPK (Erk1/2) = test: Inhibition of p44/42 MAPK (Erk1/2) phosphorylation in EGF-stimulated intact A431 cells (Western immunoblotting); type: cell-based, human
Protocol: (§1) A431 cells were seeded into 6 well plates (with αMEM+5% FCS). The following day, plates were washed once with serum-free medium and grown for 18 hours in serum-free medium (αMEM) before being exposed to a range of inhibitor or prodrug concentrations for 1 hour and then stimulated for 15 minutes with 100 ng/ml epidermal growth factor (EGF receptor ligand). Next cells were washed with ice cold PBS and lysed in modified RIPA buffer on ice (30 min). Lysates were vortexed and clarify by spinning before protein concentrations of samples was determined by BCA assay. […] All antibodies were diluted in 2% BSA TBS-Tween 0.1%. To detect phospho-EGFR (Tyr 1068) the monoclonal antibody (1:500; Cell Signalling #2234) was incubated overnight at 4° C. and binding was detected with goat-anti-Rabbit-IgG-HRP conjugated secondary antibody (1:5000; Santa Cruz #SC2054; 3 h RT). To detect downstream phospho-p44/42 MAPK(Erk 1/2) (Thr202/Tyr 204) the monoclonal antibody (Cell Signalling #4370) was used at a 1:500 dilution. The blot was then treated with Goat anti-rabbit IgG-HRP conjugated secondary antibody (Santa Cruz Biotechnology, Inc. sc-2054) for three hours at a ratio of 1:5000. To normalise for any inaccuracy in gel loading, each blot was probed with anti-β-actin antibody (Abacus ALS #MAB-1501R, 1:2000 dilution). The following day, the blot was treated with Goat anti-mouse IgG-HRP conjugated secondary antibody (Santa Cruz Biotechnology, Inc. sc-2055) for one hour at a 1:5000 ratio. Protein bands were visualized using Amersham ECL Plus Western Blotting Detection Reagent (GE Healthcare RPN2132). Densitometry was determined using Image J software. Values normalized to β-actin were plotted on SigmaPlot 11.0.

erbB1 (EGFR) = erbB1 (EGFR) (Homo sapiens, UniProt P00533); test: Inhibition of erbB1 autophosphorylation in EGF-stimulated intact A431 cells (Western immunoblotting); type: cell-based; details: 1 hour treatment, phospho-EGFR (Tyr 1068), β-actin corrected
Chain of erbB1 (EGFR) (P00533 25-1210): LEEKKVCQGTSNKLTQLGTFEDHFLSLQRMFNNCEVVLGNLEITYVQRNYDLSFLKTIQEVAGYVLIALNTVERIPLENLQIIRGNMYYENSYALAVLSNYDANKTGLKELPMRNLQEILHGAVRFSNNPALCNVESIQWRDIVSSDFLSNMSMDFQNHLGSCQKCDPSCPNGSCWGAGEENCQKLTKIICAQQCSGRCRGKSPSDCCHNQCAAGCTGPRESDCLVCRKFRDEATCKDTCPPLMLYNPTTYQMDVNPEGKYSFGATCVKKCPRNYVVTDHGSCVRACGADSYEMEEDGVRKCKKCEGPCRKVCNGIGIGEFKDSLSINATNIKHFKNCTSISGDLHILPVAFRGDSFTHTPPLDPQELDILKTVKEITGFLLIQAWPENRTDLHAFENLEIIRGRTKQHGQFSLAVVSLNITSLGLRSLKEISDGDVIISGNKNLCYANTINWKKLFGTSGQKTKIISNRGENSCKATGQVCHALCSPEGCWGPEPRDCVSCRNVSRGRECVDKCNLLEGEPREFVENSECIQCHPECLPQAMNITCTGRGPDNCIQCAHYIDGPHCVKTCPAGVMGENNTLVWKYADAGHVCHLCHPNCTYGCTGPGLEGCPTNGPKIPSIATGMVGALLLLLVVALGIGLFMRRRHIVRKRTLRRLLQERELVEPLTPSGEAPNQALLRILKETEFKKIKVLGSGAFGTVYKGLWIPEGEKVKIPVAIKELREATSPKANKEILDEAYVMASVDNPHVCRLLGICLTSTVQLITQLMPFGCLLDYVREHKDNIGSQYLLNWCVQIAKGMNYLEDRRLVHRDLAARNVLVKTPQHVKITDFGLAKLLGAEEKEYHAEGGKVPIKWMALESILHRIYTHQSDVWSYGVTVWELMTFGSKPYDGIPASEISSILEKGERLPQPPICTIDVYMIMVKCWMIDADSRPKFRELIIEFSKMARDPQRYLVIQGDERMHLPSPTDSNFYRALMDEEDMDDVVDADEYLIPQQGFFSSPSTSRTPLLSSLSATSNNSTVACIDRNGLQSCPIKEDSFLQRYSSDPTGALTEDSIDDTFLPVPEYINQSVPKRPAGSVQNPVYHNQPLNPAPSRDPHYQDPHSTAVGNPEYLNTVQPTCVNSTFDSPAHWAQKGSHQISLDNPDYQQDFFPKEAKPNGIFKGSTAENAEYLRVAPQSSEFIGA
Protocol: as §1

A431 tumours = details: A431 xenograft, q3dx4, intraperitoneal
[1] = pulse radiolysis, determined against methylviologen
[2] = read-out: Cellular Growth Inhibition IC50 SKOV3 Anoxic, initial 4 hours of the 24 hour exposure under anoxic conditions
[3] = read-out: Cellular Growth Inhibition IC50 SKOV3 Oxic, 24 hour exposure entirely under oxic conditions, washed, further 4 days
[4] = read-out: Cellular Growth Inhibition IC50 A431 Anoxic, initial 4 hours of the 24 hour exposure under anoxic conditions
[5] = read-out: Cellular Growth Inhibition IC50 A431 Oxic, 24 hour exposure entirely under oxic conditions, washed, further 4 days
[6] = read-out: Cellular Growth Inhibition IC50 H1975 Anoxic, initial 4 hours of the 24 hour exposure under anoxic conditions
[7] = read-out: Cellular Growth Inhibition IC50 H1975 Oxic, 24 hour exposure entirely under oxic conditions, washed, further 4 days
[8] = % increase in time to RTV4 relative to control

Structure (SMILES): Cn1cnc([N+](=O)[O-])c1C[N+](C)(C)C/C=C/C(=O)Nc1cc2c(Nc3ccc(OCc4cccc(Cl)c4)c(Cl)c3)ncnc2cn1 [Compound 12, (2E)-4-[(4-{3-chloro-4-[(3-chlorobenzyl)oxy]anilino}pyrido[3,4-d]pyrimidin-6-yl)amino]-N,N-dimethyl-N-[(1-methyl-4-nitro-1H-imidazol-5-yl)methyl]-4-oxo-2-buten-1-ammonium bromide]
- Drug related deaths (H1975 tumours): 0
- Weight Loss Nadir (%) (H1975 tumours): −7.8 ± 0.6%
- SKOV3 HCR (Hypoxic Cytotoxicity Ratio) (SKOV3 cells; fold change in intra-experimental IC50, 4 hours anoxia relative to oxic only): 26
- IC50 (SKOV3 cells; [2]): 8100 nM
- IC50 (SKOV3 cells; [3]): 47000 nM
- IC50 (A431 cells; [4]): 370 nM
- IC50 (A431 cells; [5]): 2900 nM
- H1975 HCR (Hypoxic Cytotoxicity Ratio) (H1975 cells): 14
- IC50 (H1975 cells; [6]): 2400 nM
- IC50 (H1975 cells; [7]): 36000 nM

Structure (SMILES): CN(C)C/C=C/C(=O)Nc1cc2c(Nc3ccc(OCc4ccccn4)c(Cl)c3)ncnc2cn1 [Compound 3, (2E)-N-{4-[3-chloro-4-(2-pyridinylmethoxy)anilino]pyrido[3,4-d]pyrimidin-6-yl}-4-(dimethylamino)-2-butenamide]
- downstream p44/42 MAPK(Erk 1/2) phosphorylation (Thr202/Tyr 204), result in words (p44/42 MAPK (Erk1/2); 1 hour treatment): coordinate loss
- IC50 (p44/42 MAPK (Erk1/2); Homo sapiens, A-431, 1 hour treatment, read-out: IC50 p44/42 MAPK(Erk 1/2) phosphorylation (Thr202/Tyr 204)): 179 nM
- IC50 (erbB1 (EGFR)): 48.3 nM
- Drug related deaths (H1975 tumours): 0
- Weight Loss Nadir (%) (H1975 tumours): −4.7 ± 0.4%
- IC50 (SKOV3 cells; [2]): 1130 nM
- IC50 (A431 cells; [4]): 140 nM
- H1975 HCR (Hypoxic Cytotoxicity Ratio) (H1975 cells): 0.8
- IC50 (H1975 cells; [6]): 730 nM

Structure (SMILES): C#Cc1cc(Nc2ncnc3cnc(NC(=O)/C=C/CN(C)C)cc23)ccc1Cl [Compound 9, (2E)-N-[4-(4-chloro-3-ethynylanilino)pyrido[3,4-d]pyrimidin-6-yl]-4-(dimethylamino)-2-butenamide]
- Drug related deaths (A431 tumours; lactate buffer pH 4): 0
- TGD (Tumour Growth Delay) (A431 tumours; [8]): >250%
- Weight Loss Nadir (%) (A431 tumours; mean nadir relative to day 0 weight): −1.7 ± 1.7%
- IC50 (SKOV3 cells; [2]): 960 nM
- IC50 (A431 cells; [4]): 16 nM
- H1975 HCR (Hypoxic Cytotoxicity Ratio) (H1975 cells): 0.5
- IC50 (H1975 cells; [6]): 560 nM

Structure (SMILES): CN(C)C/C=C/C(=O)Nc1cc2c(Nc3ccc(OCc4cccc(Cl)c4)c(Cl)c3)ncnc2cn1 [Compound 1, (2E)-N-(4-{3-chloro-4-[(3-chlorobenzyl)oxy]anilino}pyrido[3,4-d]pyrimidin-6-yl)-4-(dimethylamino)-2-butenamide]
- Drug related deaths (H1975 tumours): 0
- Weight Loss Nadir (%) (H1975 tumours): −3.6 ± 3.0%
- IC50 (SKOV3 cells; [2]): 690 nM
- IC50 (A431 cells; [4]): 221 nM
- IC50 (H1975 cells; [6]): 880 nM

Structure (SMILES): Cn1cnc([N+](=O)[O-])c1C[N+](C)(C)C/C=C/C(=O)Nc1cc2c(Nc3ccc(Br)c(Br)c3)ncnc2cn1.[Br-] [Compound 19, (2E)-4-{[4-(3,4-dibromoanilino)pyrido[3,4-d]pyrimidin-6-yl]amino}-N,N-dimethyl-N-[(1-methyl-4-nitro-1H-imidazol-5-yl)methyl]-4-oxo-2-buten-1-ammonium bromide]
- E(1)/V 1-electron reduction potential [1]: −0.425 V
- Drug related deaths (H1975 tumours): 1
- TGD (Tumour Growth Delay) (H1975 tumours; [8]): 138%
- Weight Loss Nadir (%) (H1975 tumours): −2.7 ± 0.6%
- IC50 (SKOV3 cells; [2]): 420 nM
- IC50 (SKOV3 cells; [3]): 29000 nM
- IC50 (A431 cells; [4]): 25 nM
- IC50 (A431 cells; [5]): 420 nM
- IC50 (H1975 cells; [6]): 230 nM
- IC50 (H1975 cells; [7]): 15000 nM

Structure (SMILES): Cc1nc([N+](=O)[O-])c(C[N+](C)(C)C/C=C/C(=O)Nc2cc3c(Nc4ccc5c(cnn5Cc5cccc(F)c5)c4)ncnc3cn2)n1C [Compound 14, (2E)-N-[(1,2-dimethyl-4-nitro-1H-imidazol-5-yl)methyl]-4-[(4-{[1-(3-fluorobenzyl)-1H-indazol-5-yl]amino}pyrido[3,4-d]pyrimidin-6-yl)amino]-N,N-dimethyl-4-oxo-2-buten-1-ammonium bromide]
- IC50 (SKOV3 cells; [2]): 1100 nM
- IC50 (SKOV3 cells; [3]): 32000 nM
- IC50 (A431 cells; [4]): 63 nM
- IC50 (A431 cells; [5]): 5700 nM
- H1975 HCR (Hypoxic Cytotoxicity Ratio) (H1975 cells): 26
- IC50 (H1975 cells; [6]): 1200 nM
- IC50 (H1975 cells; [7]): 20000 nM
